Laboratory results reported in ChEMBL document CHEMBL1134488, “Potent reversible inhibitors of the protein tyrosine phosphatase CD45” (J Med Chem, 2001).
Where a SMILES comes first, the peptide text is derived from it. The star is where a group is joined. Phenanthrenequinone2carbonyl = O=C1C(=O)c2cc(C(=O)*)ccc2-c2ccccc21; 3Phenanthroyl(9,10-dioxo) = O=C1C(=O)c2ccc(C(=O)*)cc2-c2ccccc21; X1 = O=C1C(=O)c2cc(N*)ccc2-c2ccccc21

How the values were obtained:
T-cell [1] = assay: Cytotoxicity measured against human T-cells; type: functional
T-cell [2] = assay: In vitro inhibition of human T-cell proliferation; type: functional, cell-based

Compound | CC50 (T-cell [1]) [µM] | IC50 (T-cell [2]) [µM]
O=C1C(=O)c2ncccc2-c2ccccc21 | 7 | 0.4
O=C1C=C(c2cc(Cl)cc(Cl)c2)c2ccccc2C1=O | 5.5 | 0.3
O=C1C=C(c2c(-c3ccccc3)[nH]c3ccccc23)c2ccccc2C1=O | 16 | 2.2
CCOc1ccccc1-c1ccc2c(c1)C(=O)C(=O)c1ccccc1-2 | > 30 | 0.7
O=C1C(=O)c2cc([N+](=O)[O-])ccc2-c2ccc([N+](=O)[O-])cc21 | 8 | 0.5
O=C(O)c1ccc2c(c1)C(=O)C(=O)c1ccccc1-2 | > 30 | > 30
O=C1C=C(c2ccccc2Cl)c2ccccc2C1=O | 12.4 | 0.3
O=C(O)CNC(=O)c1ccc2c(c1)-c1ccccc1C(=O)C2=O | > 30 | 6.5
O=C(O)c1ccc2c(c1)-c1ccccc1C(=O)C2=O | – | > 30
O=C1C(=O)c2cc([N+](=O)[O-])ccc2-c2ccccc21 | 10 | 1.6
Nc1cccc2c1-c1ccccc1C(=O)C2=O | 9 | 0.2
Cn1cc(C2=CC(=O)C(=O)c3ccccc32)c2ccccc21 | > 30 | 1.5
O=C1C(=O)c2cccc([N+](=O)[O-])c2-c2ccccc21 | 10 | –
COC(=O)CCCC(=O)Nc1ccc2c(c1)-c1ccccc1C(=O)C2=O | 9 | 1.6
O=C1C=C(c2cccc([N+](=O)[O-])c2)c2ccccc2C1=O | 4 | 0.4
CCOC1=CC(=O)C(=O)c2ccccc21 | > 30 | > 30
O=C1C(=O)c2ccc([N+](=O)[O-])cc2-c2ccccc21 | 2.8 | 0.2
C=CCOC1=CC(=O)C(=O)c2ccccc21 | > 30 | > 30
O=C1C=Cc2ccc(O)cc2C1=O | > 30 | > 30
CCCC(=O)Nc1ccc2c(c1)C(=O)C(=O)c1ccccc1-2 | 8.2 | 1.1

Compound | CC50 (T-cell [1]) [µM] | IC50 (T-cell [2]) [µM]
O=C1C(=O)c2ccc(NC(=O)c3ccccc3C(F)(F)F)cc2-c2ccccc21 | 14 | –
O=C1C=C(c2ccccc2)c2ccccc2C1=O | 12 | 0.2
O=C1C=Cc2cc(C(=O)c3ccccc3)ccc2C1=O | > 30 | 11
O=C1C(=O)c2cc(-c3ccsc3)ccc2-c2ccccc21 | 7.3 | 1.7
COC(=O)c1ccc2c(c1)C=CC(=O)C2=O | > 30 | 7.1
COC(=O)c1cccc2c1C=CC(=O)C2=O | > 30 | –
COC(=O)CCC(=O)Nc1ccc2c(c1)-c1ccccc1C(=O)C2=O | 18 | –
Nc1ccc2c(c1)-c1ccccc1C(=O)C2=O | 17 | –
O=C1C(=O)c2cc(-c3ccc4c(c3)OCO4)ccc2-c2ccccc21 | 5 | 1.7
Nc1cccc2c1C(=O)C(=O)c1ccccc1-2 | 9.6 | 7.8
O=C1C=C(Br)c2ccccc2C1=O | > 30 | 22
O=C1C(=O)c2ccsc2-c2ccccc21 | 3.5 | –
Cc1ccc(S(=O)(=O)Nc2ccc3c(c2)C(=O)C(=O)c2ccccc2-3)cc1 | > 30 | 6.4
Cc1ccc(S(=O)(=O)N(c2ccc3c(c2)C(=O)C(=O)c2ccccc2-3)S(=O)(=O)c2ccc(C)cc2)cc1 | 5.3 | –
O=C1C=C(c2ccc(Br)cc2)c2ccccc2C1=O | 3 | 0.2
CC(=O)N[C@@H](C)C(=O)N[C@H](C(=O)N[C@@H](CCC(=O)O)C(=O)NCC(=O)N[C@@H](CCC(N)=O)C(=O)N[C@@H](CC(=O)Nc1ccc2c(c1)C(=O)C(=O)c1ccccc1-2)C(=O)O)[C@@H](C)O (Ac-ATEGQD(X1)-OH) | – | 21.4
CC(=O)N[C@@H](Cc1ccccc1)C(=O)N[C@H](C(=O)N[C@@H](C)C(=O)N[C@H](C(=O)N[C@@H](CCC(=O)O)C(=O)NCC(=O)N[C@@H](CCC(N)=O)C(=O)N[C@@H](CC(=O)Nc1ccc2c(c1)C(=O)C(=O)c1ccccc1-2)C(=O)O)[C@@H](C)O)[C@@H](C)O (Ac-FTATEGQD(X1)-OH) | – | > 30
CC(=O)N[C@H](C(=O)N[C@@H](C)C(=O)N[C@H](C(=O)N[C@@H](CCC(=O)O)C(=O)NCC(=O)N[C@@H](CCC(N)=O)C(=O)N[C@@H](CC(=O)Nc1ccc2c(c1)C(=O)C(=O)c1ccccc1-2)C(=O)O)[C@@H](C)O)[C@@H](C)O (Ac-TATEGQD(X1)-OH) | – | 23
O=C(O)CC[C@H](NC(=O)c1ccc2c(c1)C(=O)C(=O)c1ccccc1-2)C(=O)N[C@@H](CCC(=O)O)C(=O)N1CCC[C@H]1C(=O)N[C@@H](CCC(=O)O)C(=O)NCC(=O)O (Phenanthrenequinone2carbonyl-EEPEG-OH) | > 30 | 14.2
N=C(N)NCCC[C@H](NC(=O)[C@@H]1CCCN1C(=O)[C@H](CCC(=O)O)NC(=O)[C@H](CCC(=O)O)NC(=O)c1ccc2c(c1)C(=O)C(=O)c1ccccc1-2)C(=O)NCC(=O)O (Phenanthrenequinone2carbonyl-EEPRG-OH) | > 30 | 16

Compound | CC50 (T-cell [1]) [µM] | IC50 (T-cell [2]) [µM]
O=C(O)CC[C@H](NC(=O)c1ccc2c(c1)C(=O)C(=O)c1ccccc1-2)C(=O)NCC(=O)N1CCC[C@H]1C(=O)N[C@@H](CCC(=O)O)C(=O)NCC(=O)O (Phenanthrenequinone2carbonyl-EGPEG-OH) | > 30 | 8.8
N=C(N)NCCC[C@H](NC(=O)[C@@H]1CCCN1C(=O)CNC(=O)[C@H](CCC(=O)O)NC(=O)c1ccc2c(c1)C(=O)C(=O)c1ccccc1-2)C(=O)NCC(=O)O (Phenanthrenequinone2carbonyl-EGPRG-OH) | > 30 | 23
N=C(N)NCCC[C@H](NC(=O)[C@H](CCC(=O)O)NC(=O)c1ccc2c(c1)C(=O)C(=O)c1ccccc1-2)C(=O)N1CCC[C@H]1C(=O)N[C@@H](CCC(=O)O)C(=O)NCC(=O)O (Phenanthrenequinone2carbonyl-ERPEG-OH) | > 30 | 3
N=C(N)NCCC[C@H](NC(=O)[C@@H]1CCCN1C(=O)[C@H](CCCNC(=N)N)NC(=O)[C@H](CCC(=O)O)NC(=O)c1ccc2c(c1)C(=O)C(=O)c1ccccc1-2)C(=O)NCC(=O)O (Phenanthrenequinone2carbonyl-ERPRG-OH) | > 30 | 19
O=C(O)CC[C@H](NC(=O)[C@@H]1CCCN1C(=O)[C@H](CCC(=O)O)NC(=O)CNC(=O)c1ccc2c(c1)C(=O)C(=O)c1ccccc1-2)C(=O)NCC(=O)O (Phenanthrenequinone2carbonyl-GEPEG-OH) | > 30 | 9
N=C(N)NCCC[C@H](NC(=O)[C@@H]1CCCN1C(=O)[C@H](CCC(=O)O)NC(=O)CNC(=O)c1ccc2c(c1)C(=O)C(=O)c1ccccc1-2)C(=O)NCC(=O)O (Phenanthrenequinone2carbonyl-GEPRG-OH) | > 30 | 20
O=C(O)CC[C@H](NC(=O)[C@@H]1CCCN1C(=O)CNC(=O)CNC(=O)c1ccc2c(c1)C(=O)C(=O)c1ccccc1-2)C(=O)NCC(=O)O (Phenanthrenequinone2carbonyl-GGPEG-OH) | > 30 | 19.3
N=C(N)NCCC[C@H](NC(=O)[C@@H]1CCCN1C(=O)CNC(=O)CNC(=O)c1ccc2c(c1)C(=O)C(=O)c1ccccc1-2)C(=O)NCC(=O)O (Phenanthrenequinone2carbonyl-GGPRG-OH) | > 30 | 16
N=C(N)NCCC[C@H](NC(=O)CNC(=O)c1ccc2c(c1)C(=O)C(=O)c1ccccc1-2)C(=O)N1CCC[C@H]1C(=O)N[C@@H](CCC(=O)O)C(=O)NCC(=O)O (Phenanthrenequinone2carbonyl-GRPEG-OH) | > 30 | 5.5
N=C(N)NCCC[C@H](NC(=O)[C@@H]1CCCN1C(=O)[C@H](CCCNC(=N)N)NC(=O)CNC(=O)c1ccc2c(c1)C(=O)C(=O)c1ccccc1-2)C(=O)NCC(=O)O (Phenanthrenequinone2carbonyl-GRPRG-OH) | > 30 | > 30
N=C(N)NCCC[C@H](NC(=O)c1ccc2c(c1)C(=O)C(=O)c1ccccc1-2)C(=O)N[C@@H](CCC(=O)O)C(=O)N1CCC[C@H]1C(=O)N[C@@H](CCC(=O)O)C(=O)NCC(=O)O (Phenanthrenequinone2carbonyl-REPEG-OH) | > 30 | 5
N=C(N)NCCC[C@H](NC(=O)c1ccc2c(c1)C(=O)C(=O)c1ccccc1-2)C(=O)NCC(=O)N1CCC[C@H]1C(=O)N[C@@H](CCC(=O)O)C(=O)NCC(=O)O (Phenanthrenequinone2carbonyl-RGPEG-OH) | > 30 | 3.3
N=C(N)NCCC[C@H](NC(=O)c1ccc2c(c1)C(=O)C(=O)c1ccccc1-2)C(=O)NCC(=O)N1CCC[C@H]1C(=O)N[C@@H](CCCNC(=N)N)C(=O)NCC(=O)O (Phenanthrenequinone2carbonyl-RGPRG-OH) | > 30 | 14
N=C(N)NCCC[C@H](NC(=O)c1ccc2c(c1)C(=O)C(=O)c1ccccc1-2)C(=O)N[C@@H](CCCNC(=N)N)C(=O)N1CCC[C@H]1C(=O)N[C@@H](CCC(=O)O)C(=O)NCC(=O)O (Phenanthrenequinone2carbonyl-RRPEG-OH) | > 30 | 11
N=C(N)NCCC[C@H](NC(=O)c1ccc2c(c1)C(=O)C(=O)c1ccccc1-2)C(=O)N[C@@H](CCCNC(=N)N)C(=O)N1CCC[C@H]1C(=O)N[C@@H](CCCNC(=N)N)C(=O)NCC(=O)O (Phenanthrenequinone2carbonyl-RRPRG-OH) | > 30 | 21
NC(=O)CC[C@H](NC(=O)[C@H](CCC(=O)O)NC(=O)c1ccc2c(c1)-c1ccccc1C(=O)C2=O)C(=O)NCC(=O)N[C@@H](CCC(N)=O)C(=O)N1CCC[C@H]1C(=O)O ({3Phenanthroyl(9,10-dioxo)}-EQGQP-OH) | > 30 | 7
NC(=O)CC[C@H](NC(=O)[C@@H]1CCCN1C(=O)[C@H](CCC(N)=O)NC(=O)[C@H](CCC(=O)O)NC(=O)c1ccc2c(c1)-c1ccccc1C(=O)C2=O)C(=O)N1CCC[C@H]1C(=O)O ({3Phenanthroyl(9,10-dioxo)}-EQPQP-OH) | > 30 | > 30
NC(=O)CC[C@H](NC(=O)CNC(=O)[C@H](CCC(=O)O)NC(=O)CNC(=O)c1ccc2c(c1)-c1ccccc1C(=O)C2=O)C(=O)N1CCC[C@H]1C(=O)O ({3Phenanthroyl(9,10-dioxo)}-GEGQP-OH) | > 30 | 10.5
